Test results taken from paper PMC10126811, “The dinitrobenzamide mustard prodrugs, PR-104A and SN27686, for use in a novel MNDEPT cancer prodrug therapy approach” (Bioscience Reports, 2023).
Like-named read-outs stand apart in the source and are kept apart here.

Assays:
YfkO-cys = tested on: T1, YfkO-cys; assay: prodrug consumption at […] nm, microplate, Michaelis-Menten fit; assay type: biochemical, Bacillus licheniformis; conditions: NADH 4 mM, 50 mM phosphate pH 7.2, 37 °C, 5% v/v DMSO, prodrug 0.1-20 mM
T1 construct: pET28a+ His-tag plus tag of 6 N-terminal cysteines, tags kept; E. coli Rosetta pLysS; FMN-loaded; approx. 30 kDa monomer on SDS-PAGE; free enzyme

NfnB-cys = target: T2, NfnB-cys (Escherichia coli, UniProt P38489); assay: as above; assay type: biochemical; conditions: read-out: Km μM, NADH 4 mM, 50 mM phosphate pH 7.2, 37 °C, 5% v/v DMSO, prodrug 0.1-20 mM
T2 construct: gene nfsB; pET28a+ His-tag plus tag of 6 N-terminal cysteines, tags kept; E. coli Rosetta pLysS; FMN-loaded; approx. 28 kDa monomer on SDS-PAGE; free enzyme
T2 sequence (P38489 whole entry): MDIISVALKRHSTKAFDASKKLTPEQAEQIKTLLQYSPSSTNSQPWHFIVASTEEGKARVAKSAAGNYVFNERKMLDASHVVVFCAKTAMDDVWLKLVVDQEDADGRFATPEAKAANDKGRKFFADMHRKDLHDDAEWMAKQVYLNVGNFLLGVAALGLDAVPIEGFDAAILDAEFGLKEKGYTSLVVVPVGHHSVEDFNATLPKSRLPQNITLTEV

SMILES: CS(=O)(=O)OCCN(CCBr)c1c(C(=O)NCCO)cc([N+](=O)[O-])cc1[N+](=O)[O-] [PR-104A, 2-[N-(2-bromoethyl)-2-(2-hydroxyethylcarbamoyl)-4,6-dinitroanilino]ethylmethanesulfonate]
- Km (YfkO-cys; text b40 prints 1935 μM): 1900 ± 350 µM
- Km (NfnB-cys; text b40 prints 3172 μM): 3100 ± 400 µM

SMILES: O=C(NCCO)c1cc([N+](=O)[O-])cc([N+](=O)[O-])c1N(CCBr)CCBr [SN27686]
- Km (YfkO-cys): 420 ± 120 µM
- Km (NfnB-cys; text b40 prints 257 μM): 250 ± 80 µM
